According to paper PMC4439194 (Biochimica et biophysica acta, 2014):

Biological target: HmbR (Neisseria meningitidis, UniProt Q9JYA8)
Test: UV-vis absorption and EPR of ferric heme-bound HmbR
Assay type: binding
Conditions: 500 mM imidazole, pH 7.4; sixth axial ligand of the bound ferric heme

c1c[nH]cn1 [imidazole]
UV-vis absorption and EPR of ferric heme-bound HmbR: change from pentacoordinate to hexacoordinate ligation upon addition of exogenous imidazole to ferric holoHmbR
